Assay results as given in US9718790B2, “Triazine derivative and pharmaceutical composition having an analgesic activity comprising the same” (SHIONOGI & CO., LTD., priority 2010, dated 2017).

Target: human P2X3 receptor (Homo sapiens (Human), UniProt P56373)
Assay: Evaluation of human P2X3 receptor inhibitory activity (Fluo-3 calcium fluorescence, FDSS 3000, ATP stimulation);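 further: stimulus was 50 nM ATP with fluorescence followed for 3 min, and the response per well was peak post-ATP fluorescence divided by the reading at measurement start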
Type: cell-based
[1] = human P2X3 receptor, Test Example 1
[2] = C6BU-1 cells stably expressing human P2X3 receptor
[3] = C6BU-1 cells stably expressing human P2X3 receptor, Fluo-3 fluorescence, FDSS 3000

human P2X3 receptor, sequence (P56373 whole entry): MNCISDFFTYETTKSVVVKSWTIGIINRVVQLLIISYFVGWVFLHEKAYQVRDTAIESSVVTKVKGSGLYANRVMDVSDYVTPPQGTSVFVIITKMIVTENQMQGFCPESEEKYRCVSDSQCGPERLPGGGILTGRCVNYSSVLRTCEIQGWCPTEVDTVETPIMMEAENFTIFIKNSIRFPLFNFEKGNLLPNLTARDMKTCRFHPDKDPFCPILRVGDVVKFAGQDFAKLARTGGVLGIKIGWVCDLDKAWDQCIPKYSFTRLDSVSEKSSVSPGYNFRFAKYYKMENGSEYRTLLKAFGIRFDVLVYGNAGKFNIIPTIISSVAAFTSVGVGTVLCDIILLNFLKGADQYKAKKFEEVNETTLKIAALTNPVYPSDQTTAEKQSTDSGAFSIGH

SMILES | IC50 [2] [nM] | IC50 [3] [nM] | also measured
CCn1c(=O)[nH]/c(=N\c2ccc(Oc3cncc(C(N)=O)n3)cc2)n(Cc2ccc(C)cc2)c1=O [Compound I-2472] | – | – | IC50 [1]: 3 nM
Cc1cc(/N=c2\[nH]c(=O)n([C@H]3CCOC3=O)c(=O)n2Cc2ccc(Cl)cc2)ccc1OC(C)C [Compound I-0775] | 41 | – | –
CC(C)n1cnc2cc(/N=c3\[nH]c(=O)n([C@@H](C)[C@@H](C)C(=O)O)c(=O)n3Cc3ccc(Cl)cc3)ccc21 [Compound I-1772] | – | 297 | –
COCCOc1ccc(/N=c2\[nH]c(=O)n(C[C@H](C)C(=O)O)c(=O)n2Cc2ccc(Cl)cc2)cc1Cl [Compound I-0789] | 181 | – | –
C[C@@H](C(=O)O)[C@H](C)n1c(=O)[nH]/c(=N\c2ccc3cc(Br)ccc3c2)n(Cc2ccc(Cl)cc2)c1=O [Compound I-1832] | – | 32 | –
CCc1nc2ccc(/N=c3\[nH]c(=O)n(CCCCC(=O)OC)c(=O)n3Cc3ccc(Cl)cc3)cc2s1 [Compound I-2183] | 1 | – | –
CCc1cc2cc(/N=c3\[nH]c(=O)n(C[C@H](C)C(=O)O)c(=O)n3Cc3ccc(Cl)cc3)ccc2o1 [Compound I-1766] | – | 18 | –
COC(=O)[C@H](C)[C@H](C)n1c(=O)[nH]/c(=N\c2ccc(OC3CCC3)c(C)c2)n(Cc2ccc(Cl)cc2)c1=O [Compound I-1403] | 50 | – | –
Cn1c(=O)[nH]/c(=N\c2ccc(Oc3ccc(C(=O)O)cc3)cc2)n(Cc2ccc(Cl)cc2)c1=O [Compound I-2063] | 120 | – | –
CC[C@@H](C)Oc1ccc(/N=c2\[nH]c(=O)n(C[C@H](C)C(=O)O)c(=O)n2Cc2ccc(Cl)cn2)cc1Cl [Compound I-1626] | – | 18 | –
CCn1c(=O)[nH]/c(=N\c2ccc(Oc3ccc(C(=O)O)cn3)cc2)n(Cc2ccc(C)cc2)c1=O [Compound I-2400] | – | – | IC50 [1]: 6 nM
O=c1[nH]/c(=N\c2ccc(Oc3ccsn3)cc2)n(Cc2ccc(Cl)cc2)c(=O)n1CCO [Compound I-2563] | – | – | IC50 [1]: 15 nM
CCc1cc2cc(/N=c3\[nH]c(=O)n(C[C@H](O)CO)c(=O)n3Cc3ccc(Cl)cc3)ccc2o1 [Compound I-2315] | – | – | IC50 [1]: 17 nM
Cc1ccc(Cn2c(=O)n(C[C@H](C)C(=O)O)c(=O)[nH]/c2=N\c2ccc(C=C3CCCC3)cc2)cc1 [Compound I-1098] | – | 74 | –
COc1cc(/N=c2\[nH]c(=O)n(CCO)c(=O)n2Cc2ccc(Cl)cc2)ccc1OC(C)C [Compound I-2006] | 36 | – | –
COC(=O)[C@@H](C)Cn1c(=O)[nH]/c(=N\c2ccc(C=C(C)C)c(Cl)c2)n(Cc2ccc(Cl)cc2)c1=O [Compound I-0955] | – | 28 | –
COC(=O)[C@@H](C)Cn1c(=O)[nH]/c(=N\c2ccc(Br)c(OC)c2)n(Cc2ccc(C)cc2)c1=O [Compound I-1195] | 221 | – | –
Cc1cc(/N=c2\[nH]c(=O)n(C[C@H](C)C(=O)O)c(=O)n2Cc2ccc(F)cc2)ccc1OC(C)C [Compound I-0629] | 127 | – | –
CCn1c(=O)[nH]/c(=N\c2ccc(Oc3ccc(C#N)cn3)cc2)n(Cc2ccc(Cl)cc2)c1=O [Compound I-2306] | – | – | IC50 [1]: 2 nM
COc1ccc(COc2cc(Cn3c(=O)[nH]/c(=N\c4ccc(OC(C)C)c(F)c4)n(Cc4ccc(Cl)cc4)c3=O)on2)cc1 [Compound I-1764] | – | 35 | –
Cc1oc2ccc(/N=c3\[nH]c(=O)n(CC(CO)CO)c(=O)n3Cc3ccc(Cl)cc3)cc2c1C [Compound I-2072] | 8 | – | –
CC(CO)(CO)Cn1c(=O)[nH]/c(=N\c2ccc(Oc3ccon3)c(F)c2)n(Cc2ccc(F)cc2)c1=O [Compound I-2574] | – | – | IC50 [1]: 11 nM

SMILES | IC50 [2] [nM] | IC50 [3] [nM] | also measured
Cc1ccc(Cn2c(=O)n([C@H](C)[C@H](C)C(=O)O)c(=O)[nH]/c2=N\c2ccc(N3CCCCC3)cc2)cc1 [Compound I-1459] | 34 | – | –
COc1ccc2cc(/N=c3\[nH]c(=O)n([C@@H](C)[C@@H](C)C(=O)O)c(=O)n3Cc3ccc(Cl)cc3)ccc2n1 [Compound I-1587] | – | 38 | –
CCOc1ccc(/N=c2\[nH]c(=O)n(CCC(=O)O)c(=O)n2Cc2ccc(C)cc2)cc1Cl [Compound I-0882] | – | – | IC50 [1]: 100 nM
C[C@@H](Oc1ccc(/N=c2\[nH]c(=O)n(CC(N)=O)c(=O)n2Cc2ccc(Cl)cc2)cc1)C(F)(F)F [Compound I-1959] | 65 | – | –
C[C@@H](C(=O)O)[C@H](C)n1c(=O)[nH]/c(=N\c2ccc3[nH]ncc3c2)n(Cc2ccc(Cl)cc2)c1=O [Compound I-1743] | – | 861 | –
Cc1ccc(Cn2c(=O)n([C@@H](C)[C@@H](C)C(=O)O)c(=O)[nH]/c2=N\c2ccc(N3CCCCC3)cc2)cc1 [Compound I-1394] | 44 | – | –
CCn1c(=O)[nH]/c(=N\c2ccc(Oc3cncc(C(=O)O)n3)cc2)n(Cc2ccc(C)cc2)c1=O [Compound I-2474] | – | – | IC50 [1]: 7 nM
Cc1ccc(Cn2c(=O)n(C[C@H](C)C(=O)O)c(=O)[nH]/c2=N\c2cnc(OC3CCC3)c(C)c2)cc1 [Compound I-1482] | – | – | IC50 [1]: 98 nM
CCn1c(=O)[nH]/c(=N\c2ccc(Oc3ccnc(CN(C)C)c3)cc2)n(Cc2ccc(Cl)cc2)c1=O [Compound I-2244] | – | – | IC50 [1]: 59 nM
COC(=O)[C@@H](C)Cn1c(=O)[nH]/c(=N\c2ccc(C3=CCCCC3)cc2)n(Cc2ccc(C)cc2)c1=O [Compound I-1078] | – | 218 | –
CCOC(=O)CCn1c(=O)[nH]/c(=N\c2ccc3nc(C)sc3c2)n(Cc2ccc(C)cc2)c1=O [Compound I-1519] | – | – | IC50 [1]: 2 nM
NC(=O)CCn1c(=O)[nH]/c(=N\c2ccc(Oc3ncccn3)cc2)n(Cc2ccc(Cl)cc2)c1=O [Compound I-2565] | – | – | IC50 [1]: 17 nM
COC(=O)c1cccc(Cn2c(=O)[nH]/c(=N\c3ccc(OC(C)C)c(C)c3)n(Cc3ccc(Cl)cc3)c2=O)n1 [Compound I-0781] | 9 | – | –
CCCOc1ccc(/N=c2\[nH]c(=O)n([C@@H](C)[C@@H](C)C(=O)O)c(=O)n2Cc2ccc(C)cc2)cc1 [Compound I-0929] | – | 45 | –
CCn1c(=O)[nH]/c(=N\c2ccc(Oc3cccc4[nH]ncc34)c(Cl)c2)n(Cc2ccc(Cl)cc2)c1=O [Compound I-2196] | 446 | – | –
COc1cc(/N=c2\[nH]c(=O)n(CCC(=O)O)c(=O)n2Cc2ccc(C)cc2)ccc1CC(C)C [Compound I-1362] | 54 | – | –
COC(=O)[C@@H](C)Cn1c(=O)[nH]/c(=N\c2ccc(Cl)c(C(F)(F)F)c2)n(Cc2ccc(C)cc2)c1=O [Compound I-1000] | – | 116 | –
CC(C)Oc1ccc(/N=c2\[nH]c(=O)n([C@@H]3C[C@H]3C(=O)OC(C)(C)C)c(=O)n2Cc2ccc(Cl)cc2)cc1F [Compound I-0604] | 13 | – | –
NC(=O)CCn1c(=O)[nH]/c(=N\c2ccc(OCC3CC3)cc2)n(Cc2ccc(Cl)cc2)c1=O [Compound I-1914] | 46 | – | –
CCOC(=O)CCn1c(=O)[nH]/c(=N\c2ccc(OC3CCC3)c(C)c2)n(Cc2ccc(Cl)cc2)c1=O [Compound I-1401] | 22 | – | –
CCc1oc2ccc(/N=c3\[nH]c(=O)n(CCCNC(=O)C(F)(F)F)c(=O)n3Cc3ccc(Cl)cc3)cc2c1C [Compound I-1567] | – | 12 | –
Cc1cc(Oc2ccc(/N=c3\[nH]c(=O)n(C[C@@H](O)CO)c(=O)n3Cc3ccc(Cl)cc3)cc2)no1 [Compound I-2229] | – | – | IC50 [1]: 23 nM

SMILES | IC50 [2] [nM] | IC50 [3] [nM] | also measured
CCc1oc2ccc(/N=c3\[nH]c(=O)n(C[C@H](C)NC(C)=O)c(=O)n3Cc3ccc(Cl)cc3)cc2c1C [Compound I-1666] | – | 10 | –
CCCn1c(=O)[nH]/c(=N\c2ccc(Oc3ccnc(C(=O)O)c3)cc2)n(Cc2ccc(Cl)cc2)c1=O [Compound I-2162] | 6 | – | –
Cc1ccc(Cn2c(=O)n(C[C@H](C)C(=O)O)c(=O)[nH]/c2=N\c2ccc(CC3CCCC3)cc2)cc1 [Compound I-1100] | – | 43 | –
Cc1ccc(Cn2c(=O)n(CCCC(=O)O)c(=O)[nH]/c2=N\c2ccc3nc(C)sc3c2)cc1 [Compound I-2124] | 27 | – | –
CCn1c(=O)[nH]/c(=N\c2ccc(Oc3cc(C(=O)O)ccn3)cc2)n(Cc2ccc(Cl)cc2)c1=O [Compound I-2250] | – | – | IC50 [1]: 8 nM
CCCOc1ccc(/N=c2\[nH]c(=O)n([C@@H](C)[C@@H](C)C(=O)OC)c(=O)n2Cc2ccc(C)cc2)cc1 [Compound I-0926] | – | 31 | –
COC(=O)[C@@H](C)Cn1c(=O)[nH]/c(=N\c2cccc(C3=CCCC3)c2)n(Cc2ccc(C)cc2)c1=O [Compound I-1084] | – | 392 | –
COC(=O)[C@@H](C)Cn1c(=O)[nH]/c(=N\c2ccc(OC3CCC3)nc2)n(Cc2ccc(C)cc2)c1=O [Compound I-1187] | – | 58 | –
COC(=O)[C@H](C)[C@H](C)n1c(=O)[nH]/c(=N\c2ccc(N3CCCCC3)cc2)n(Cc2ccc(Cl)cc2)c1=O [Compound I-1380] | 26 | – | –
CCOC(=O)CCn1c(=O)[nH]/c(=N\c2ccc(OC(CC)CC)cc2)n(Cc2ccc(C)cc2)c1=O [Compound I-1054] | – | 18 | –
COc1cc(/N=c2\[nH]c(=O)n(CCCO)c(=O)n2Cc2ccc(Cl)cc2)ccc1OC(C)C [Compound I-2002] | 8 | – | –
O=C(O)c1cccc(Oc2ccc(/N=c3\[nH]c(=O)[nH]c(=O)n3Cc3ccc(Cl)cc3)cc2)c1 [Compound I-1923] | 84 | – | –
CNC(=O)Nc1cc(Oc2ccc(/N=c3\[nH]c(=O)n(C)c(=O)n3Cc3ccc(Cl)cc3)cc2)ccn1 [Compound I-2656] | – | – | IC50 [1]: 6 nM
COC(=O)[C@@H](C)Cn1c(=O)[nH]/c(=N\c2ccc(OC3CCCC3)nc2)n(Cc2ccc(C)cc2)c1=O [Compound I-1185] | – | 116 | –
Cc1nsc(Oc2ccc(/N=c3\[nH]c(=O)n(C[C@H](O)CO)c(=O)n3Cc3ccc(F)cc3)cc2)n1 [Compound I-2607] | – | – | IC50 [1]: 20 nM
CCOC(=O)CCn1c(=O)[nH]/c(=N\c2ccc(OC(C)C)c(F)c2)n(CC2CCC(F)(F)CC2)c1=O [Compound I-1884] | – | 296 | –
CCc1nc2ccc(/N=c3\[nH]c(=O)n(CC)c(=O)n3Cc3ccc(Cl)cc3)cc2s1 [Compound I-1703] | – | 4 | –
COc1cc(/N=c2\[nH]c(=O)n(C[C@H](C)C(=O)O)c(=O)n2Cc2ccc(Cl)cc2)ccc1CC(C)C [Compound I-1270] | 12 | – | –
COC(=O)[C@@H](C)[C@H](C)n1c(=O)[nH]/c(=N\c2ccc(OC(C)C)c(C)c2)n(Cc2ccc(Cl)cc2)c1=O [Compound I-1025] | – | 134 | –
O=c1[nH]/c(=N\c2ccc3nc(C(F)(F)F)sc3c2)n(Cc2ccc(Cl)cc2)c(=O)n1CCO [Compound I-2167] | 54 | – | –
